Measurements as given in PubChem BioAssay (NCI).
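Cultured in 96-well plates, cells were exposed to test compound for 48 hours across five concentrations. TGI: concentration producing complete growth inhibition.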

What was measured:
Test in all cases: DTP human tumour cell line panel, 48 h
[1] = tested on: SNB-75 CNS
[2] = tested on: NCI/ADR-RES ovarian
[3] = tested on: HCC-2998 colon
[4] = tested on: HL-60(TB) leukemia
[5] = tested on: MDA-N
[6] = tested on: HOP-62 NSCLC
[7] = tested on: T-47D breast
[8] = tested on: RXF 393 renal
[9] = tested on: HCT-15 colon
[10] = tested on: NCI-H522 lung
[11] = tested on: OVCAR-4 ovarian
[12] = tested on: BT-549 breast
[13] = tested on: EKVX NSCLC
[14] = tested on: KM12 colon
[15] = tested on: SF-295 CNS
[16] = tested on: MOLT-4 leukemia
[17] = tested on: UACC-257 melanoma
[18] = tested on: SK-MEL-28 melanoma
[19] = tested on: SF-268 CNS
[20] = tested on: K-562 leukemia
[21] = tested on: CCRF-CEM leukemia
[22] = tested on: OVCAR-3 ovarian
[23] = tested on: A498 renal
[24] = tested on: SN12C renal
[25] = tested on: UACC-62 melanoma
[26] = tested on: LOX IMVI melanoma
[27] = tested on: SK-OV-3 ovarian
[28] = tested on: SW-620 colon
[29] = tested on: SK-MEL-2 melanoma
[30] = tested on: OVCAR-5 ovarian
[31] = tested on: CAKI-1 renal
[32] = tested on: MALME-3M melanoma
[33] = tested on: NCI-H226 lung
[34] = tested on: SK-MEL-5 melanoma
[35] = tested on: SR leukemia
[36] = tested on: TK-10 renal
[37] = tested on: UO-31 renal
[38] = tested on: HCT-116 colon
[39] = tested on: NCI-H460 lung
[40] = tested on: OVCAR-8 ovarian
[41] = tested on: SNB-19 CNS
[42] = tested on: NCI-H23 lung
[43] = tested on: U251 CNS
[44] = tested on: ACHN renal
[45] = tested on: HT29 colon
[46] = tested on: DU-145 prostate
[47] = tested on: MCF7 breast
[48] = tested on: MDA-MB-231 breast
[49] = tested on: M14 melanoma
[50] = tested on: PC-3 prostate
[51] = tested on: A549 NSCLC
[52] = tested on: RPMI-8226 leukemia
[53] = tested on: HOP-92 NSCLC
[54] = tested on: COLO 205 colon
[55] = tested on: HS 578T breast
[56] = tested on: IGROV1 ovarian
[57] = tested on: 786-0 renal
[58] = tested on: MDA-MB-435
[59] = tested on: SF-539 CNS

With `COc1cc(C2c3cc4c(cc3CC3COC(=O)N32)OCO4)cc(OC)c1OC` (stereo not drawn) as the compound, how does the TGI [1] read?
Its TGI is > 100 µM.

What about the TGI [2] of the same compound?
The TGI was 4.26 µM.

And the TGI [3]?
Its TGI is 8.7 µM.

And the TGI [4]?
Its TGI is 8.6 µM.

What about the TGI [5] of the same compound?
Its TGI is 1.28 µM.

And the TGI [6]?
The TGI was > 100 µM.

What about the TGI [7] of the same compound?
Its TGI is > 100 µM.

What about the TGI [8] of the same compound?
Its TGI is > 100 µM.

And the TGI [9]?
The TGI was > 27.9 µM.

What about the TGI [10] of the same compound?
Its TGI is 5.66 µM.

And the TGI [11]?
The TGI was > 100 µM.

What about the TGI [12] of the same compound?
Its TGI is > 100 µM.

What about the TGI [13] of the same compound?
The TGI was > 100 µM.

What about the TGI [14] of the same compound?
Its TGI is > 61.7 µM.

And the TGI [15]?
The TGI was 5.35 µM.

What about the TGI [16] of the same compound?
The TGI was > 61.8 µM.

And the TGI [17]?
Its TGI is > 100 µM.

What about the TGI [18] of the same compound?
The TGI was > 100 µM.

What about the TGI [19] of the same compound?
Its TGI is > 100 µM.

What about the TGI [20] of the same compound?
The TGI was > 100 µM.

What about the TGI [21] of the same compound?
Its TGI is > 36.4 µM.

And the TGI [22]?
Its TGI is 5.05 µM.

And the TGI [23]?
The TGI was > 100 µM.

What about the TGI [24] of the same compound?
The TGI was > 48.1 µM.

And the TGI [25]?
Its TGI is > 100 µM.

And the TGI [26]?
The TGI was > 100 µM.

And the TGI [27]?
The TGI was > 100 µM.

And the TGI [28]?
The TGI was > 100 µM.

What about the TGI [29] of the same compound?
Its TGI is > 100 µM.

What about the TGI [30] of the same compound?
Its TGI is > 100 µM.

What about the TGI [31] of the same compound?
Its TGI is > 100 µM.

And the TGI [32]?
Its TGI is > 100 µM.

And the TGI [33]?
The TGI was > 92.5 µM.

And the TGI [34]?
The TGI was 35.6 µM.

What about the TGI [35] of the same compound?
Its TGI is > 28.7 µM.

And the TGI [36]?
Its TGI is > 100 µM.

And the TGI [37]?
The TGI was > 100 µM.

And the TGI [38]?
Its TGI is > 100 µM.

What about the TGI [39] of the same compound?
The TGI was > 100 µM.

What about the TGI [40] of the same compound?
Its TGI is > 100 µM.

And the TGI [41]?
Its TGI is > 100 µM.

And the TGI [42]?
The TGI was > 31.6 µM.

And the TGI [43]?
The TGI was > 31.6 µM.

What about the TGI [44] of the same compound?
Its TGI is > 100 µM.

What about the TGI [45] of the same compound?
The TGI was 5.14 µM.

What about the TGI [46] of the same compound?
Its TGI is > 100 µM.

What about the TGI [47] of the same compound?
Its TGI is > 100 µM.

What about the TGI [48] of the same compound?
Its TGI is 30 µM.

What about the TGI [49] of the same compound?
Its TGI is > 100 µM.

And the TGI [50]?
The TGI was > 100 µM.

And the TGI [51]?
The TGI was > 100 µM.

And the TGI [52]?
The TGI was > 100 µM.

What about the TGI [53] of the same compound?
The TGI was > 94.9 µM.

And the TGI [54]?
The TGI was 4.89 µM.

What about the TGI [55] of the same compound?
Its TGI is > 57.2 µM.

And the TGI [56]?
The TGI was > 100 µM.

What about the TGI [57] of the same compound?
The TGI was > 100 µM.

And the TGI [58]?
Its TGI is 1.44 µM.

What about the TGI [59] of the same compound?
The TGI was 5.8 µM.

What does the source list for `CC(C)OC(=O)c1ccc(CCc2cc(O)c(Br)cc2O)cc1`?
TGI [1]: 46.5 µM; TGI [2]: 25.5 µM; TGI [3]: 29.6 µM; TGI [4]: 38.9 µM; TGI [5]: 24 µM; TGI [6]: 24.7 µM; TGI [7]: 53.2 µM; TGI [8]: 28.3 µM; TGI [9]: 14 µM; TGI [10]: 23.8 µM; TGI [11]: 5.54 µM; TGI [12]: 30 µM; TGI [13]: 29.4 µM; TGI [14]: 18.1 µM; TGI [15]: 32.3 µM; TGI [16]: 52.1 µM; TGI [17]: 26.4 µM; TGI [18]: 26.9 µM; TGI [19]: 25.6 µM; TGI [20]: > 58.9 µM; TGI [21]: 14.3 µM; TGI [22]: 19.5 µM; TGI [23]: 41.8 µM; TGI [24]: 28.9 µM; TGI [25]: 34.4 µM; TGI [26]: 20.8 µM; TGI [27]: 35.6 µM; TGI [28]: 22 µM; TGI [29]: 26.7 µM; TGI [30]: 31.8 µM; TGI [31]: 25 µM; TGI [32]: 31.1 µM; TGI [33]: 39.8 µM; TGI [34]: 28.3 µM; TGI [35]: 64.9 µM; TGI [36]: 30.6 µM; TGI [37]: 10.2 µM; TGI [38]: 25.3 µM; TGI [39]: 34.5 µM; TGI [40]: 29.5 µM; TGI [41]: 27.9 µM; TGI [42]: 22.8 µM; TGI [43]: 17.5 µM; TGI [44]: 31.9 µM; TGI [45]: 37.4 µM; TGI [46]: 28.6 µM; TGI [47]: 29.4 µM; TGI [48]: 26.7 µM; TGI [49]: 29.9 µM; TGI [50]: 19.2 µM; TGI [51]: 44.8 µM; TGI [52]: 8.18 µM; TGI [53]: 35.2 µM; TGI [54]: 28.7 µM; TGI [55]: 42.1 µM; TGI [56]: 23.1 µM; TGI [57]: 25.4 µM; TGI [58]: 20.8 µM; TGI [59]: 15.7 µM
